Measured values reported in paper PMC2990764, “Evolution of Allosteric Citrate Binding Sites on 6-phosphofructo-1-kinase” (PLoS ONE, 2010).
Where a chain is given by its changes, count along the chain named.

Columns and labels:
Experiment in all cases: coupled spectrophotometric PFK1 assay ([…] nm) with purified enzyme
Format in all cases: biochemical
[1] = molecular target: T1, human muscle type 6-phosphofructo-1-kinase (PFK-M) (Homo sapiens, UniProt P08237, K617A)
T1 construct: gene PFKM; recombinant human PFK-M mutant expressed in E. coli RL257
T1 sequence (P08237 2-780 K617A): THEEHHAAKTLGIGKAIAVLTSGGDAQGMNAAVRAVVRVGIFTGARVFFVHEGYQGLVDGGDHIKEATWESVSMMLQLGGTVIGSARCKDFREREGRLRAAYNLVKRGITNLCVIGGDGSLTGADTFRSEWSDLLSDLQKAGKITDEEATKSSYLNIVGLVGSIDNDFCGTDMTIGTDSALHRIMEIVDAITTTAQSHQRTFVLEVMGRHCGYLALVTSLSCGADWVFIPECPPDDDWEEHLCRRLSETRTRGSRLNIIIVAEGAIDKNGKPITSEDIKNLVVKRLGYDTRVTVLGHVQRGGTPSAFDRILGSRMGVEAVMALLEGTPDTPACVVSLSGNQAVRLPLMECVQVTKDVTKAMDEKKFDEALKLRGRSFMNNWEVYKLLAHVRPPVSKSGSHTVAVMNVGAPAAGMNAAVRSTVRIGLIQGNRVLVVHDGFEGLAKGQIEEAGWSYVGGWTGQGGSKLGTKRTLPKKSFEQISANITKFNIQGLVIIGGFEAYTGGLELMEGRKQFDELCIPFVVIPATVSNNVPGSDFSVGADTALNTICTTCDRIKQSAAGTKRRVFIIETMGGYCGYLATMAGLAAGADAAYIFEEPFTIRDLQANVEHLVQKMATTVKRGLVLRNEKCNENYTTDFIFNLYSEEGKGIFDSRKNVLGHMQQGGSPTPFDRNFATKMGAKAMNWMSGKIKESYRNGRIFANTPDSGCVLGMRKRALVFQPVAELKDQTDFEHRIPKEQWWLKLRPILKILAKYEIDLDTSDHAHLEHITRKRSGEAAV

[2] = molecular target: T2, human muscle type 6-phosphofructo-1-kinase (PFK-M) (Homo sapiens, UniProt P08237, K557R)
T2 construct: gene PFKM; recombinant human PFK-M mutant expressed in E. coli RL257
T2 sequence (P08237 2-780 K557R): T1 sequence (P08237 2-780 K617A) with K556R, A616K

[3] = molecular target: T3, human muscle type 6-phosphofructo-1-kinase (PFK-M) (Homo sapiens, UniProt P08237)
T3 construct: gene PFKM; recombinant native human PFK-M expressed in E. coli RL257
T3 sequence (P08237 2-780): T1 sequence (P08237 2-780 K617A) with A616K

Work on `O=C(O)CC(O)(CC(=O)O)C(=O)O` [citrate] yielded a Ki [1] of 500 µM, a Ki [2] of 300 µM and a Ki [3] of 50 µM.
